Source: patent US10786471B2, “Methods and products related to glutaminase inhibitors” (Massachusetts Institute of Technology, priority 2017, dated 2020)
“Also recorded” adds a separate entry of the source. Where two headings read alike, the source gives them in different places.

What was measured:
MDA-MB-468 = assay: Proliferation rate of MDA-MB-468 cells overexpressing SLC7A11 with 1 μM CB-839; assay type: cell-based; conditions: SLC7A11 overexpression, RPMI vs RPMI (10 μM cystine)
Method: (§1) Proliferation rates for MDA-MB-468 and AU565 cell lines overexpressing SLC7A11 or not (from FIG. 4G) in RPMI or RPMI (10 μM cystine) with vehicle (DMSO) or 1 μM CB-839 are shown. The values represent the mean and the error bars represent ±SEM.
(§2) Cell lines growing in log phase in RPMI medium were trypsinized, counted and plated into 6 well dishes in 2 mL of RPMI medium and incubated overnight. Initial seeding density was 20,000 cells/well for A549 cells, or 50,000 cells for MCF7, AU565 and MDA-MB-468 cells. The next day, a plate of cells was trypsinized and counted to provide a number of cells at the start of the experiment. Cells were then washed twice with 2 mL of PBS, and […] of the indicated media premixed with indicated compounds or vehicles was added. Cells were then counted 4 days after adding the indicated medias. Proliferation rate was determined using the following formula:
(§3) Proliferation rate in doublings/day=[Log 2(Final Day 4 cell count/Initial Day 0 cell count)]/4 days. Cells were counted using a Cellometer Auto t$ Plus Cell Counter (Nexcelom Bioscience).

AU565 = assay: Proliferation rate of AU565 cells overexpressing SLC7A11 with 1 μM CB-839; assay type: cell-based; conditions: SLC7A11 overexpression, RPMI vs RPMI (10 μM cystine)
Method: as §1, §2, §3

breast cancer cell lines = conditions: RPMI, cited from earlier work
A549 cells [1] = assay: 13C5-glutamine tracing of glutamine anaplerosis in cultured A549 cells; assay type: cell-based, human; conditions: A549 cells cultured 8 h; high cystine (208 μM added to adult bovine serum)
Description: Each medium included ^13C5-glutamine added to ˜33% enrichment (n=3). […] For all parts of the figure, the values represent the mean and the error bars represent ±SEM.

A549 cells [2] = assay: Proliferation rate of A549 cells with vehicle or 1 μM CB-839 in different media; assay type: cell-based, human; conditions: cystine at RPMI/DMEM levels
Method: Each medium included ^13C5-glutamine added to ˜33% enrichment (n=3). […] For all parts of the figure, the values represent the mean and the error bars represent ±SEM. […] In FIG. 8A, A549 cells were cultured in adult bovine serum with DMEM nutrient levels, adult bovine serum with DMEM amino acid levels, and adult bovine serum with DMEM amino acid levels but without supplementation of the amino acids indicated in each column. For each medium, the proliferation rate for cells grown with vehicle (DMSO) or 1 μM CB-839 is shown (n=3). […] Cell lines growing in log phase in RPMI medium were trypsinized, counted and plated into 6 well dishes in 2 mL of RPMI medium and incubated overnight. […] The next day, a plate of cells was trypsinized and counted to provide a number of cells at the start of the experiment. […] Cells were then counted 4 days after adding the indicated medias. Proliferation rate was determined using the following formula: Proliferation rate in doublings/day=[Log 2(Final Day 4 cell count/Initial Day 0 cell count)]/4 days. Cells were counted using a Cellometer Auto t$ Plus Cell Counter (Nexcelom Bioscience).

A549 tumors = assay: Tumor glutamine anaplerosis in A549 tumor-bearing mice after oral cystine; assay type: in vivo; conditions: oral cystine before 13C5-glutamine bolus
Method: In FIG. 5A, nu/nu mice were treated orally with 2.4 g/kg cystine and plasma from these animals was serially collected at the indicated time points. Cystine concentration of the plasma was determined by GC-MS. In FIG. 5B, A549 tumor-bearing mice were treated (n=4) or not (n=3) with oral cystine prior to bolus ^13C5-glutamine injection prior to harvesting the plasma and tumors. […] In FIG. 5C, intratumoral glutamate (m+5) and α-ketoglutarate (m+5) labeling from FIG. 5B were normalized to tumor glutamine (m+5).

| Structure (SMILES) | sensitivity of proliferation to CB-839 (MDA-MB-468) | sensitivity of proliferation to CB-839 (AU565) | IC50 (breast cancer cell lines; 'resistant' breast cancer cell lines, maximal CB-839 tested 1 μM) [nM] | IC50 (breast cancer cell lines; sensitive breast cancer cell lines) [nM] | effect on glutamine anaplerosis (fractional labeling from 13C5-glutamine) (A549 cells [1]) | effect of cystine on CB-839 inhibition of proliferation (A549 cells [2]) | effect on tumor glutamine anaplerosis in vivo (A549 tumors) |
| --- | --- | --- | --- | --- | --- | --- | --- |
| O=C(Cc1cccc(OC(F)(F)F)c1)Nc1ccc(CCCCc2nnc(NC(=O)Cc3ccccn3)s2)nn1 [CB-839] | cystine-induced CB-839 sensitivity | cystine-induced CB-839 sensitivity | > 1000 | < 1000 |  |  |  |
| N[C@@H](CSSC[C@H](N)C(=O)O)C(=O)O [cystine] |  |  |  |  | enhance glutamine anaplerosis | potentiate the effects of the glutaminase inhibitor CB-839; also recorded: potentiates the glutaminase inhibitor CB-839 | increases tumor glutamine anaplerosis in vivo |
